The assay has as its system rodents. In words: effectiveness of respiratory irritants in the foam in hastening the death of rodents. In kind it is in vivo. Particulars: rodents that inhaled the foam/irritant combination. Here is the method:
Furthermore, it is available in commercial quantities in a finely ground form which disperses quickly and evenly into the concentrated foaming agent and remains suspended as the foaming agent is diluted and aerated. Alternative respiratory irritants may share all of or many of these characteristics and include ground horseradish and powdered elemental sulphur.
In the preferred embodiment, a concentrated composition is made by mixing the foaming agent in liquid concentrate form with the mustard powder, preferably in an approximate 3:1 ratio by weight, with the goal of achieving a 1% (w:v) foaming agent concentration and approximately 0.3% to 0.5% (w:v) mustard concentration when the concentrate is diluted to a use level. The proprietary concentrated foaming agents have specific gravities of approximately 1.029 kg per liter and it is generally recommended by the respective manufacturers that it be used in 0.1% to 1% concentration.

This is an account of results in US7070767B2, “Fossorial rodent control compositions and methods” (priority 1998, dated 2006).

With `[S]` [powdered elemental sulphur, elemental sulphur], the “effectiveness as respiratory irritant in the foam” value is recorded as “effective but less so than the ground mustard”.
